IC50 data for 34 molecules are collected here from US6875743B1, “Cell adhesion inhibitors” (Biogen, Inc., priority 1996, dated 2005).

Numbered stars: 1 amine (or outer) side, 2 acyl side, 3 side chain; on linkers, the order of the positions; unused ones are H or OH. Square brackets hold non-standard residues; d marks the D form. Peptide text beside a SMILES is read from it. * marks the point of attachment. Hydrocinnamoyl = O=C(CCc1ccccc1)*; Quinaldoyl = O=C(c1ccc2ccccc2n1)*; X1 = O=C(Cc1ccc(N[*:1])cc1)[*:2]; NH(2-Me-phenyl) = Cc1ccccc1N*; NMeL = CN[CH](CC(C)C)C(=O)O; PhAc = O=C(Cc1ccccc1)*; Boc = CC(C)(C)OC(=O)*; CO = O=C([*:1])[*:2]; Bz = O=C(c1ccccc1)*; NHPh = c1ccc(N*)cc1; Ahx = NCCCCCC(=O)O; Bn = c1ccc(C*)cc1

The target of the assay is T1, VLA4 (Homo sapiens, UniProt P05556+P13612).
T1 construct: endogenous in cells; host or cells: Ramos cells
As to the kind of experiment: Inhibition of VLA4-dependent adhesion to BSA-CS1. The conditions noted are these: binding of BCECF-labelled Ramos cells to BSA-CS1 coated wells, 2 mM MnCl2; read-out: IC50. The format is cell-based. The text has this:
For example, the cell adhesion inhibitory activity of these compounds may be measured by determining the concentration of inhibitor required to block the binding of VLA-4-expressing cells to fibronectin- or CS1-coated plates. In this assay microtiter wells are coated with either fibronectin (containing the CS-1 sequence) or CS-1. If CS-1 is used, it must be conjugated to a carrier protein, such as bovine serum albumin, in order to bind to the wells. Once the wells are coated, varying concentrations of the test compound are then added together with appropriately labelled, VLA-4-expressing cells. Alternatively, the test compound may be added first and allowed to incubate with the coated wells prior to the addition of the cells. The cells are allowed to incubate in the wells for at least 30 minutes. Following incubation, the wells are emptied and washed. Inhibition of binding is measured by quantitating the fluorescence or radioactivity bound to the plate for each of the various concentrations of test compound, as well as for controls containing no test compound.
VLA-4-expressing cells that may be utilized in this assay include Ramos cells, Jurkat cells, A375 melanoma cells, as well as human peripheral blood lymophocytes (PBLs). The cells used in this assay may be fluorescently or radioactively labelled.
This assay was used to assess the potency of VLA4-directed inhibitory compounds of this invention.
We dissolved BSA-SMCC (Pierce Chemical, Rockford, Ill.; Catalog #77115) in H2O at a concentration of 10 mg/mL. [SEQ ID NO:4]: […](“Cys-Tyr-CS1 peptide”), which we synthesized by conventional solid phase chemistry and purified by HPLC, was dissolved in 10 mM HEPES pH 5, 50 mM NaCl and 0.1 mM EDTA also at a concentration of 10 mg/mL. We then mixed 500 μL of BSA-SMCC, 250 μL of Cys-Tyr-CS1 peptide and 75 μL of 1 mM HEPES pH 7.5 and allowed the conjugation reaction to proceed for 30 minutes. We stopped the reaction by adding 1 μL of beta-mercaptoethanol. Samples were analyzed for cross-linking by SDS-PAGE.
We coated the wells of a Linbro titertek polystyrene 96-well flat bottom plate (Flow Laboratories, Maclean, Va.; catalog #76-231-05) with 100 μL of the above-described BSA-CS1 solution diluted to 1 μg/mL in 0.05 M NaHCO3 (15 mM NaHCO3, 35 mM Na2CO3) pH 9.2. Some wells were not coated with CS1 in order to assess non-specific cell binding (NSB). The plate was then incubated overnight at 4° C.
Following this incubation, the contents of the wells were removed by inverting and blotting the plate. All of the wells were then blocked with 100 μL of 1% BSA in PBS, 0.02% NaN3, for a minimum of one hour at room temperature.
Ramos cells are grown, maintained and labelled in RPMI 1640 culture medium containing 1% BSA. Just prior to running the assay, we added 2′,7′-bis-(2-carboxyethyl)-5 (and -6) carboxyfluorescein acetoxymethyl ester (“BCECF-AM”; Molecular Probes Inc., Eugene, Oreg.; catalog #B-1150) to a final concentration of 2 μM to a culture of Ramos cells (4×10^6 cells/mL). We incubated the cells for 20 minutes at 37° C.
Following labelling, the cells were washed twice in assay buffer (24 mM TRIS, 137 mM NaCl, 2.7 mM KCl, pH 7.4, containing 0.1% BSA and 2 mM glucose) to remove any cations originating from the culture medium. The cells were then resuspended in assay buffer to 4×10^6 cells/mL and 2 mM MnCl2 was added to upregulate VLA4 on the surface of the cells.
Immediately prior to running the assay, we removed the BSA blocking solution from the 96-well plates and washed the wells with 100 μL of assay buffer. We then added to each well 25 μL of test cell adhesion inhibitory compound at 2× the final concentration and 25 μL of the labelled Ramos cells. […] Each concentration of compound was tested in triplicate. The compound and cells are allowed to incubate for 30 minutes at room temperature.

T1 sequence (P13612 34-1032): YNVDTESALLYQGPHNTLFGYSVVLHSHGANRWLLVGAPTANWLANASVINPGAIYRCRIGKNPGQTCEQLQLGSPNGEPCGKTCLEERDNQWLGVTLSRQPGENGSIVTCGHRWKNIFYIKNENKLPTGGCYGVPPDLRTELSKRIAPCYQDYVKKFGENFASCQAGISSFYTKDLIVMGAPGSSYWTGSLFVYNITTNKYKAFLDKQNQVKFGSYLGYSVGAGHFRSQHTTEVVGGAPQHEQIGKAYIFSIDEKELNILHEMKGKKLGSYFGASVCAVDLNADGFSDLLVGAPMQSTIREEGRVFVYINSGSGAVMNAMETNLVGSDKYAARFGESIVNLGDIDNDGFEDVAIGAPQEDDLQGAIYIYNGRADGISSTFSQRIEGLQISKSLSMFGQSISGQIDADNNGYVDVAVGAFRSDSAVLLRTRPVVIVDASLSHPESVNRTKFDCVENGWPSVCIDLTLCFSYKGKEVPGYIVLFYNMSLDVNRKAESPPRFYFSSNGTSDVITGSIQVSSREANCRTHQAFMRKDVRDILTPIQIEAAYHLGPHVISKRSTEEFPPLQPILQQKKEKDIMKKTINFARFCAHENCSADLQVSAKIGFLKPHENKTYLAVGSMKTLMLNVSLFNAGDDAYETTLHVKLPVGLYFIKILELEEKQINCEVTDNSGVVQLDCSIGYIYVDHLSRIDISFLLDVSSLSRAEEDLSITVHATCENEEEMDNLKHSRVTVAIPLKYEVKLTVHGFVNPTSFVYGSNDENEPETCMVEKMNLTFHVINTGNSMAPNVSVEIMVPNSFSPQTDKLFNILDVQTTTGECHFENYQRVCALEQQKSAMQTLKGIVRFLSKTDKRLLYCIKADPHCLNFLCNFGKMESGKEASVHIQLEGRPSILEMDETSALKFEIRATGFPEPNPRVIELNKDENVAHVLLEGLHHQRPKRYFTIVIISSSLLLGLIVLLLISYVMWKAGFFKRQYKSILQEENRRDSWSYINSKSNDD
T1 sequence (P05556 21-798): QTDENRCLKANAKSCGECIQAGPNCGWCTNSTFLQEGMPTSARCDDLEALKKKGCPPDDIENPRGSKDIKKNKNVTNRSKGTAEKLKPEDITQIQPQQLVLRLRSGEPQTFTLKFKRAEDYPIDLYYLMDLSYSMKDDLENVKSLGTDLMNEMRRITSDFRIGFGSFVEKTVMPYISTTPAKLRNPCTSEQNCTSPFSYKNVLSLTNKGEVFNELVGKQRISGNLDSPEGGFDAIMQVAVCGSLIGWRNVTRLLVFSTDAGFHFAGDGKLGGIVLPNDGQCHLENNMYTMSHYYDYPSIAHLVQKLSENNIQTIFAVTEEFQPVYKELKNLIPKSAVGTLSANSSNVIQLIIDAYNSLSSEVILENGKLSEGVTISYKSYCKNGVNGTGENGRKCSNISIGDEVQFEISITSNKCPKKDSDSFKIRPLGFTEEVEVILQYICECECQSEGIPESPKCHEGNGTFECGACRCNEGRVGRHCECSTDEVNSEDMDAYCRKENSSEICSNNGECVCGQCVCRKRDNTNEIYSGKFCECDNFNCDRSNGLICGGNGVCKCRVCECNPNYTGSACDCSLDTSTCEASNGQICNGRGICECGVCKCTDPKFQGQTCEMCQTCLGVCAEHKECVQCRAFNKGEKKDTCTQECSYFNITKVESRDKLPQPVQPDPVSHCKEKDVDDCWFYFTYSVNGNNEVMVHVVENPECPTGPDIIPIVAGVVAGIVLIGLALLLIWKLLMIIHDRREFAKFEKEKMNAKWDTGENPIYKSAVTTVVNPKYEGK

With `CNC(=O)C(NC(=O)C(CC(=O)O)NC(=O)C(Cc1ccc(O)cc1)NC(=O)Cc1ccccc1)C(C)C` (stereo not drawn) [Compound 129] (PhAc-Tyr-Asp-Val-NHMe; configuration not given here), the concentration for half-maximal inhibition (IC50) (commonly the concentration that inhibits the measured activity by half) is above 10000 nM.

For `CC(=O)N[C@@H](Cc1ccccc1)C(=O)N[C@@H](CC(C)C)C(=O)N[C@@H](CC(=O)O)C(=O)N[C@H](C(=O)O)C(C)C` [Compound 152] (Ac-FLDV-OH), the IC50 was above 10000 nM.

As to `CC(C)C[C@H](NC(=O)[C@H](Cc1ccccc1)NC(=O)c1ccccc1)C(=O)N[C@@H](CC(=O)O)C(=O)N[C@H](C(=O)O)C(C)C` [Compound 153] (Bz-FLDV-OH), the IC50 is above 10000 nM.

On to `COC(=O)C(CCSC)NC(=O)C(NC(=O)C(CC(=O)O)NC(=O)C(CC(C)C)NC(=O)OC(C)(C)C)C(C)C` (stereo not shown) [Compound 167] (Boc-LDVM-OMe; configuration not given here), for which the IC50 is above 10000 nM.

For the molecule `CC(C)C[C@H](NC(=O)c1ccc2ccccc2n1)C(=O)N[C@@H](CC(=O)O)C(=O)N[C@H](C(N)=O)C(C)C` [Compound 178], the IC50 is above 10000 nM.

In the case of `CNC(=O)C(NC(=O)C(CC(=O)O)NC(=O)C(CC(C)C)N(C)C(=O)CCc1ccccc1)C(C)C` (stereo not drawn) [Compound 184] (Hydrocinnamoyl-[NMeL]-Asp-Val-NHMe; configuration not given here), the IC50 was above 10000 nM.

As to `CNC(=O)C(C)(C)NC(=O)[C@H](CC(=O)O)NC(=O)[C@H](CC(C)C)NC(=O)c1ccc2ccccc2n1` [Compound 185], the IC50 was above 10000 nM.

Consider `CSCC[C@H](NC(=O)[C@@H](NC(=O)[C@H](CC(=O)O)NC(=O)[C@H](CC(C)C)NC(=O)c1ccc2ccccc2n1)C(C)C)C(=O)O` [Compound 186] (Quinaldoyl-LDVM-OH), for which the IC50 is above 10000 nM.

Take `COC(=O)[C@@H](NC(=O)[C@H](CC(=O)O)NC(=O)[C@H](CC(C)C)NC(=O)Cc1ccccc1)[C@@H](C)OCc1ccccc1` [Compound 192] (PhAc-Leu-Asp-Thr(Bn)-OMe): the 50% inhibitory concentration (IC50) lay within 50 to 10000 nM.

Regarding `CC(C)CC(NC(=O)Cc1ccc(NC(=O)Nc2ccccc2)cc1)C(=O)NC(CC(=O)O)C(=O)NC(C(=O)N1CCCC1C(N)=O)C(C)C` (stereo not shown) [Compound 199] ({NHPh-CO}-[X1]LDVP-NH2; configuration not given here), the IC50 was in the range of 50 to 10000 nM.

As to `CC(C)CC(NC(=O)Cc1ccc(NC(=O)Nc2ccccc2)cc1)C(=O)NC(CC(=O)O)C(=O)NC(C(=O)N1CCCC1C(N)=O)C(C)C` (stereo not shown) [Compound 201] ({NHPh-CO}-[X1]LDVP-NH2; configuration not given here), the IC50 lay within 50 to 10000 nM.

With `Cc1ccccc1NC(=O)Nc1ccc(CC(=O)N[C@@H](CCCCNC(=O)CCCCCN)C(=O)N[C@@H](CC(=O)O)C(=O)N[C@H](C(=O)N2CCC[C@H]2C(=O)O)C(C)C)cc1` [Compound 202] ({NH(2-Me-phenyl)-CO}-[X1]K(Ahx)DVP-OH), the IC50 is 50 to 10000 nM.

Consider `CC(C)C[C@H](NC(=O)Cc1ccc(NC(=O)Nc2ccccc2)cc1)C(=O)N[C@@H](CC(=O)O)C(=O)N[C@H](C(=O)O)C(C)C` [Compound 203], for which the IC50 was below 50 nM.

Consider `CNC(=O)[C@@H](NC(=O)[C@H](CC(=O)O)NC(=O)[C@H](CC(C)C)NC(=O)Cc1ccc(NC(=O)Nc2ccccc2)cc1)C(C)C` [Compound 204], for which the IC50 was 50 to 10000 nM.

In the case of `CC(C)CNC(=O)[C@@H](NC(=O)[C@H](CC(=O)O)NC(=O)[C@H](CC(C)C)NC(=O)Cc1ccc(NC(=O)Nc2ccccc2)cc1)C(C)C` [Compound 205], the IC50 was 50 to 10000 nM.

`Cc1ccccc1NC(=O)Nc1ccc(CC(=O)NC(CC(C)C)C(=O)NC(CC(=O)O)C(=O)NC(C(=O)O)c2ccccc2)cc1` (stereo not shown) [Compound 207]: the IC50 was in the range of 50 to 10000 nM.

Take `CC(C)C[C@H](NC(=O)Cc1ccc(NC(=O)Nc2ccccc2)cc1)C(=O)N[C@@H](CC(=O)O)C(=O)N[C@H](C(=O)N1CCC[C@H]1C(N)=O)C(C)C` [Compound 208] ({NHPh-CO}-[X1]LDVP-NH2): the IC50 is below 50 nM.

Take `CC(C)C[C@@H](NC(=O)Cc1ccc(NC(=O)Nc2ccccc2)cc1)C(=O)N[C@@H](CC(=O)O)C(=O)N[C@H](C(=O)N1CCC[C@H]1C(N)=O)C(C)C` [Compound 209] ({NHPh-CO}-[X1][dL]DVP-NH2): the IC50 fell in the range of 50 to 10000 nM.

Regarding `CC(C)C[C@H](NC(=O)Cc1ccc(NC(=O)Nc2ccccc2)cc1)C(=O)N[C@H](CC(=O)O)C(=O)N[C@H](C(=O)N1CCC[C@H]1C(N)=O)C(C)C` [Compound 210] ({NHPh-CO}-[X1]L[dD]VP-NH2), the IC50 lay in the range of 50 to 10000 nM.

With `CC(C)C[C@H](NC(=O)Cc1ccc(NC(=O)Nc2ccccc2)cc1)C(=O)N[C@@H](CC(=O)O)C(=O)N[C@@H](C(=O)N1CCC[C@H]1C(N)=O)C(C)C` [Compound 211] ({NHPh-CO}-[X1]LD[dV]P-NH2), the IC50 was in the range of 50 to 10000 nM.

As to `CC(C)C[C@@H](NC(=O)Cc1ccc(NC(=O)Nc2ccccc2)cc1)C(=O)N[C@H](CC(=O)O)C(=O)N[C@@H](C(=O)N1CCC[C@@H]1C(N)=O)C(C)C` [Compound 212] ({NHPh-CO}-[X1][dL][dD][dV][dP]-NH2), the IC50 lay in the range of 50 to 10000 nM.

Regarding `CSCC[C@H](NC(=O)Cc1ccc(NC(=O)Nc2ccccc2C)cc1)C(=O)N[C@@H](CC(=O)O)C(=O)N[C@@H](CC(=O)O)C(N)=O` [Compound 219], the IC50 was below 50 nM.

`CSCC[C@H](NC(=O)Cc1ccc(NC(=O)Nc2ccccc2C)cc1)C(=O)N[C@@H](CC(=O)O)C(=O)N[C@@H](CC(C)C)C(N)=O` [Compound 220]: the IC50 was below 50 nM.

As for `CSCC[C@H](NC(=O)Cc1ccc(NC(=O)Nc2ccccc2C)cc1)C(=O)N[C@@H](CC(=O)O)C(=O)N[C@H](C(N)=O)C(C)C` [Compound 221], the 50% inhibitory concentration (IC50) was below 50 nM.

With `CSCC[C@H](NC(=O)Cc1ccc(NC(=O)Nc2ccccc2C)cc1)C(=O)N[C@@H](CC(=O)O)C(=O)N[C@H](CC(C)C)C(N)=O` [Compound 222], the IC50 was below 50 nM.

Turning to `CSCC[C@H](NC(=O)Cc1ccc(NC(=O)Nc2ccccc2C)cc1)C(=O)N[C@@H](CC(=O)O)C(=O)N[C@@H](CCC(=O)O)C(N)=O` [Compound 223], the IC50 is below 50 nM.

For the molecule `CSCC[C@H](NC(=O)Cc1ccc(NC(=O)Nc2ccccc2C)cc1)C(=O)N[C@@H](CC(=O)O)C(=O)N[C@H](C(N)=O)[C@@H](C)O` [Compound 224], the IC50 is below 50 nM.

Turning to `CSCC[C@H](NC(=O)Cc1ccc(NC(=O)Nc2ccccc2C)cc1)C(=O)N[C@@H](CC(=O)O)C(=O)N[C@H](CC(N)=O)C(N)=O` [Compound 226], the IC50 was below 50 nM.

As for `CSCC[C@H](NC(=O)Cc1ccc(NC(=O)Nc2ccccc2C)cc1)C(=O)N[C@@H](CC(=O)O)C(=O)N[C@H](CCC(=O)O)C(N)=O` [Compound 227], the IC50 is below 50 nM.

As for `CSCC[C@H](NC(=O)Cc1ccc(NC(=O)Nc2ccccc2C)cc1)C(=O)N[C@@H](CC(=O)O)C(=O)N[C@@H](Cc1c[nH]c2ccccc12)C(N)=O` [Compound 228], the IC50 is below 50 nM.

`CSCC[C@H](NC(=O)Cc1ccc(NC(=O)Nc2ccccc2C)cc1)C(=O)N[C@@H](CC(=O)O)C(=O)N[C@H](CO)C(N)=O` [Compound 229]: the IC50 was below 50 nM.

Take `Cc1ccccc1NC(=O)Nc1ccc(CC(=O)N[C@@H](CC(C)C)C(=O)N[C@@H](CC(=O)O)C(=O)N[C@@H](CC(=O)O)C(N)=O)cc1` [Compound 230]: the concentration for half-maximal inhibition (IC50) is below 50 nM.

For `Cc1ccccc1NC(=O)Nc1ccc(CC(=O)N[C@@H](CC(C)C)C(=O)N[C@@H](CC(=O)O)C(=O)N[C@@H](CC(C)C)C(N)=O)cc1` [Compound 231], the IC50 is below 50 nM.

As to `Cc1ccccc1NC(=O)Nc1ccc(CC(=O)N[C@@H](CC(C)C)C(=O)N[C@@H](CC(=O)O)C(=O)N[C@H](C(N)=O)C(C)C)cc1` [Compound 232], the IC50 is below 50 nM.
